Results reported in US20230201174A1, “COMBINATION OF FINERENONE AND A SGLT2 INHIBITOR FOR THE TREATMENT AND/OR PREVENTION OF CARDIOVASCULAR AND/OR RENAL DISEASES” (BAYER AKTIENGESELLSCHAFT, priority 2020, published 2023).

Key:
[1] = system: Wistar rats with activated renin-angiotensin-aldosterone system; assay: In vivo assay for detecting natriuretic activity in conscious rats with activated RAAS; set-up: species or system rat; conditions: for Urinary Glucose concentration / Urinary K+ concentration / Urinary Na+ concentration / Urinary Volume/ body weight: Table 4, 24 h urine, mean ± SEM
Description: Wistar rats (ca. 250-500 g body weight) were kept with free access to feed (Altromin) and drinking water. […] This sodium-reduced feed causes an activation of the RAAS in the animals during the 3 days run-in phase and therefore mimics a neuroendocrine activation which is characteristic for cardiorenal diseases. […] At the start of the test, the substance to be tested was administered by means of gavage in a volume of 2-3 ml/kg of body weight of a suitable solvent PEG400). Control animals received only solvent (‘S’ or solvent in table 2 below). Controls and substance tests were carried out in parallel on the same day. Control groups and substance-dose groups each consisted of 6 to 10 animals. During the test, the urine excreted by the animals was continuously collected in a receiver on the base of the cage.
In this comparison, eight different administrations were performed (cf. groups A to H):
Group A received the solvent (PEG400) only. This group serves as control group.
Groups B, C and D received three increasing dosages of empagliflozin (SGLT2 inhibitor) only. It serves to detect the effects of the monotherapy with SGLT2 inhibitor.
Group E received a finerenone only. It serves to detect the effect of the monotherapy with finerenone.
Groups F, G and H received finerenone and the three doses of SGLT2 inhibitor in combination, respectively. It serves to detect the effect of the combined therapy with finerenone and empagliflozin (SGLT2 inhibitor) (combination according to the invention).
After the treatment, the urinary volume, urinary glucose, urinary sodium and potassium concentrations were measured.

[2] = tended to increase on day 1 after administration; cited from earlier work
[3] = Table 4 study, monotherapy 10 mg/kg
[4] = Table 4 study, monotherapy: canagliflozin 1 and 3 mg/kg, finerenone 1 mg/kg

## Cc1ccc([C@@H]2O[C@H](CO)[C@@H](O)[C@H](O)[C@H]2O)cc1Cc1ccc(-c2ccc(F)cc2)s1 [canagliflozin, (2S,3R,4R,5S,6R)-2-(3-{[5-(4-fluorophenyl)thiophen-2-yl]methyl}-4-methylphenyl)-6-(hydroxymethyl)oxane-3,4,5-triol]
[1]; monotherapy 1 mg/kg oral
  Urinary Glucose concentration: 2.76 ± 0.36 mmol
  Urinary K+ concentration: 1.86 ± 0.11 mmol
  Urinary Na+ concentration: 0.15 ± 0.03 mmol
  Urinary Volume/ body weight: 0.03108 ± 0.00317 L/kg
[1]; monotherapy 3 mg/kg oral
  Urinary Glucose concentration: 6.94 ± 0.44 mmol
  Urinary K+ concentration: 2.40 ± 0.17 mmol
  Urinary Na+ concentration: 0.21 ± 0.05 mmol
  Urinary Volume/ body weight: 0.04049 ± 0.00243 L/kg
[1]; monotherapy 10 mg/kg oral
  Urinary Glucose concentration: 9.99 ± 0.46 mmol
  Urinary K+ concentration: 2.36 ± 0.15 mmol
  Urinary Na+ concentration: 0.41 ± 0.08 mmol
  Urinary Volume/ body weight: 0.05583 ± 0.00352 L/kg
[1]; [3]
  influence on urinary sodium, in words: increase
  influence on urinary volume, in words: increase
[1]; [4]
  influence on urinary potassium, in words: no influence
  influence on urinary sodium, in words: no influence
  influence on urinary volume, in words: no influence
[1]; Table 4 study, monotherapy: canagliflozin all doses (1, 3, 10 mg/kg), finerenone 1 mg/kg
  influence on urinary glucose, in words: strong increase
[2]
  urinary Na+ excretion, in words: returned to baseline from day 2 to 5
